{"source": "paper PMC6960228", "about": "“Ethoxysanguinarine, a Novel Direct Activator of AMP-Activated Protein Kinase, Induces Autophagy and Exhibits Therapeutic Potential in Breast Cancer Cells” (Frontiers in Pharmacology, 2020)", "key": {"[1]": {"test_system": "MCF-10A", "assay": "MTT cytotoxicity assay", "type": "cell-based, human", "text": "(§1) Human BC cell lines MCF-7, MDA-MB-231, DMA-MB-436, SK-BR3, MDA-MB-468, MDA-MB-453, and MDA-MB-435S and non-tumorigenic MCF-10A human mammary epithelial cells were obtained from American Type Culture Collection (ATCC; Manassas, VA, USA). MCF-7, SK-BR3, MDA-MB-231, and MDA-MB-436 cells were maintained in Dulbecco’s modified Eagle’s medium (DMEM; high glucose; Gibco; Thermo Fisher Scientific, Inc., Waltham, MA, USA) supplemented with 10% fetal bovine serum (FBS; HyClone; Logan, UT, USA) and antibiotics and incubated in a humidified atmosphere with 5% CO2 at 37°C. MDA-MB-468, MDA-MB-453, and MDA-MB-435S cells were maintained in Leibovitz’s L-15 (Gibco) supplemented with 10% FBS and antibiotics and incubated in a humidified atmosphere without CO2 at 37°C. MCF-10A cells were maintained in DMEM/F12 medium containing 5% horse serum (HS), insulin ([…]), epidermal growth factor (EGF, 20 ng/mL), choleratoxin ([…]), hydrocortisone ([…]), penicillin (50 U/mL), and streptomycin (50 U/mL), and incubated in a humidified atmosphere with CO2 at 37°C.\n(§2) Cells were seeded into 96-well plate and pre-cultured for 24 h, then treated with Eth for 24. Cell cytotoxicity was determined by MTT assay. […]"}, "[2]": {"test_system": "MCF-7", "assay": "MTT cytotoxicity assay", "type": "cell-based", "details": "Homo sapiens, MCF7, MCF-7, 24 h", "text": "as §1\n(§3) Cells were seeded into 96-well plate and pre-cultured for 24 h, then treated with Eth for 24. Cell cytotoxicity was determined by MTT assay. The absorbance was measured at 490 nm by automated microplated reader (BioTek Instruments, Inc., Winooski, VT, USA), and the cell death rate was calculated as followed: inhibition rate (%) = (average A490 of the control group − average A490 of the experimental group)/(average A490 of the control group − average A490 of the blank group) × 100%. Cell viability was estimated by trypan blue dye exclusion."}, "[3]": {"test_system": "MDA-MB-468", "assay": "MTT cytotoxicity assay", "type": "cell-based", "details": "Homo sapiens, MDA-MB-468, 24 h, means ± SD of quadruplicate determinations", "text": "as §1, §3"}, "[4]": {"test_system": "seven BC cell lines", "assay": "MTT assay, summary over BC cell lines", "type": "cell-based", "details": "Homo sapiens, range over BC cell lines", "text": "as §1, §2"}, "[5]": {"test_system": "MCF-7, MDA-MB-231, and MDA-MB-436 cells", "assay": "Trypan blue exclusion assay", "type": "cell-based, human", "details": "dose- and time-dependent", "procedure": "as §3"}, "[6]": {"test_system": "LC3-II and Beclin-1 in MCF-7, MDA-MB-231, and MDA-MB-436 cells", "assay": "Western blot of autophagy markers", "type": "cell-based, human", "details": "dose- and time-dependent", "procedure": "Cells were lysed in radioimmunoprecipitation assay buffer containing 50 mM Tris, pH 8.0, 150 mM NaCl, 0.1% SDS, 0.5% sodium deoxycholate, 1% NP-40, 1 mM DTT, 1 mM NaF, 1 mM sodium orthovanadate, 1 mM phenylmethylsulfonyl fluoride (PMSF; Sigma-Aldrich; Merck KGaA), and 1% protease inhibitors cocktail (EMD Millipore, Billerica, MA, USA). Protein concentration was determined using the Bradford method. Equal amounts of sample (25 µg) were separated by SDS-PAGE (8–12% gels). Electrophoresed proteins were then transferred onto polyvinylidene fluoride membranes (EMD Millipore, Billerica, MA, USA). The membranes were blocked with 5% skimmed milk in Tris-buffered saline at room temperature for 1 h. Following blocking, membranes were incubated overnight at 4°C with primary antibodies and then rinsed with Tris-buffered saline with Tween 20. […]\nFigure 2 Eth induces autophagy in BC cells. […] (C): MCF-7, MDA-MB-231, or MDA-MB-436 cells transfected with pQCXIP-GFP-LC3 plasmid were treated with increasing concentrations of Eth for 24 h, and assessed by immunoﬂuorescence analyses. […] (D): MDA-MB-231 or MDA-MB-436 cells transfected with pQCXIP-GFP-LC3 plasmid were treated with Eth (2.0 µM) and/or 3-MA (1 mM) for 24 h, and assessed by immunoﬂuorescence analyses. […] (F): MCF-7, MDA-MB-231, or MDA-MB-436 cells were treated with Eth (3.5 µM, 3.0 µM, or 3.0 µM) and/or 3-MA (1 mM) for 24 h and analyzed by MTT assay. […]"}}}
{"smiles": "CCOC1c2c(ccc3c2OCO3)-c2ccc3cc4c(cc3c2N1C)OCO4", "note": "(stereo not shown) [Eth, Ethoxysanguinarine]", "values": [{"measurement": "IC50", "setting": "[1]; Homo sapiens, MCF-10A, 24 h, MTT assay, means ± SD of quadruplicate determinations", "value": "12.3 ± 2.05", "unit": "µM"}, {"measurement": "sensitivity to Eth compared with the BC cell lines", "setting": "[1]; normal human mammary epithelial cell line MCF-10A", "value": "less sensitive"}, {"measurement": "IC50", "setting": "[2]", "value": "3.29 ± 1.5", "unit": "µM"}, {"measurement": "IC50", "setting": "[3]", "value": "6.67 ± 1.7", "unit": "µM"}, {"measurement": "IC50", "setting": "[4]", "value": "2.63 to 9.15", "unit": "µM"}, {"measurement": "viable cells", "setting": "[5]", "value": "rapidly reduced viable"}, {"measurement": "accumulation of LC3-II and Beclin-1", "setting": "[6]", "value": "induced the accumulation of LC3-II and Beclin-1"}]}
